≈ marks a conversion by molar mass, not a printed value.
Legend:
[1] = test system: Streptococcus faecalis SF; format: cell-based
Protocol: (§1) Susceptibility to teixobactin and its analogues was tested on the selected Gram-positive strains using Tecan Freedom EVO high-throughput automated platform, following the standard broth dilution method as described by the Clinical and Laboratory Standards Institute ^3. MICS were determined according to CLSI guideline.

Enterococcus ET60 = format: cell-based
Protocol: as §1

Enterococcus ATCCET = format: cell-based
Protocol: as §1

Enterococcus ET6 = format: cell-based
Protocol: as §1

MRSA SA11 = format: cell-based, Staphylococcus aureus
Protocol: as §1

MRSA SA86 = format: cell-based, Staphylococcus aureus
Protocol: as §1

SA (ATCC29213) = format: cell-based, Staphylococcus aureus
Protocol: as §1

MRSA SA88 = format: cell-based, Staphylococcus aureus
Protocol: as §1

MRSA(SA11I4) = format: cell-based, Staphylococcus aureus
Protocol: as §1

MRSA and SA strains = test: MIC, summary over S. aureus strains; format: cell-based, Staphylococcus aureus; conditions: MRSA clinical isolate and MSSA ATCC29213; from MICs
Protocol: as §1

| Compound | Minimum inhibitory concentration (MIC) Streptococcus faecalis SF [1] [µg/mL] | Minimum inhibitory concentration (MIC) Enterococcus ET60 (Enterococcus ET60) [µg/mL] | Minimum inhibitory concentration (MIC) Enterococcus ATCCET (Enterococcus ATCCET) [µg/mL] | Minimum inhibitory concentration (MIC) Enterococcus ET6 (Enterococcus ET6) [µg/mL] | Minimum inhibitory concentration (MIC) MRSA SA11 (MRSA SA11) [µg/mL] | Minimum inhibitory concentration (MIC) MRSA SA86 (MRSA SA86) [µg/mL] | Minimum inhibitory concentration (MIC) SA (ATCC29213) (SA (ATCC29213)) [µg/mL] | Minimum inhibitory concentration (MIC) MRSA SA88 (MRSA SA88) [µg/mL] | Minimum inhibitory concentration (MIC) MRSA(SA11I4) (MRSA(SA11I4)) [µg/mL] | Antibacterial activity compared with teixobactin (MRSA and SA strains) |
| --- | --- | --- | --- | --- | --- | --- | --- | --- | --- | --- |
| CC[C@@H](C)[C@@H](NC(=O)[C@@H](CCC(N)=O)NC(=O)[C@H](CO)NC(=O)[C@@H](NC(=O)[C@@H](Cc1ccccc1)NC)[C@@H](C)CC)C(=O)N[C@H](C(=O)N[C@@H](CO)C(=O)N[C@H]1C(=O)N[C@@H](C)C(=O)N[C@@H](C2CCCCC2)C(=O)N[C@@H]([C@@H](C)CC)C(=O)N[C@H]1C)[C@@H](C)CC [T83] | 0.5 (≈ 0.408 µM) | 0.5 (≈ 0.408 µM) | 1 (≈ 0.815 µM) | 1 (≈ 0.815 µM) | 0.5 (≈ 0.408 µM) | 1 (≈ 0.815 µM) | 0.5 (≈ 0.408 µM) | 0.5 (≈ 0.408 µM) | 1 (≈ 0.815 µM) | – |
| CC[C@@H](C)[C@@H](NC(=O)[C@@H](CCC(N)=O)NC(=O)[C@H](CO)NC(=O)[C@@H](NC(=O)[C@@H](Cc1ccccc1)NC)[C@@H](C)CC)C(=O)N[C@H](C(=O)N[C@@H](CO)C(=O)N[C@H]1C(=O)N[C@@H](C)C(=O)N[C@@H]([C@@H](C)CC)C(=O)N[C@@H]([C@@H](C)CC)C(=O)N[C@H]1C)[C@@H](C)CC [T84] | 1 (≈ 0.833 µM) | 1 (≈ 0.833 µM) | 1 (≈ 0.833 µM) | 1 (≈ 0.833 µM) | 0.5 (≈ 0.416 µM) | 1 (≈ 0.833 µM) | 0.5 (≈ 0.416 µM) | 1 (≈ 0.833 µM) | 1 (≈ 0.833 µM) | – |
| CCC[C@@H]1NC(=O)[C@H](C)NC(=O)[C@H](NC(=O)[C@H](CO)NC(=O)[C@@H](NC(=O)[C@H](NC(=O)[C@@H](CCC(N)=O)NC(=O)[C@H](CO)NC(=O)[C@@H](NC(=O)[C@@H](Cc2ccccc2)NC)[C@@H](C)CC)[C@H](C)CC)[C@@H](C)CC)[C@H](C)NC(=O)[C@H]([C@@H](C)CC)NC1=O [T85] | 1 (≈ 0.843 µM) | 2 (≈ 1.69 µM) | 2 (≈ 1.69 µM) | 2 (≈ 1.69 µM) | 1 (≈ 0.843 µM) | 2 (≈ 1.69 µM) | 0.5 (≈ 0.421 µM) | 2 (≈ 1.69 µM) | 1 (≈ 0.843 µM) | – |
| CC[C@@H](C)[C@@H](NC(=O)[C@@H](CCC(N)=O)NC(=O)[C@H](CO)NC(=O)[C@@H](NC(=O)[C@@H](Cc1ccccc1)NC)[C@@H](C)CC)C(=O)N[C@H](C(=O)N[C@@H](CO)C(=O)N[C@H]1C(=O)N[C@@H](C)C(=O)N[C@@H](CCSC)C(=O)N[C@@H]([C@@H](C)CC)C(=O)N[C@H]1C)[C@@H](C)CC [T86] | 1 (≈ 0.821 µM) | 2 (≈ 1.64 µM) | 2 (≈ 1.64 µM) | 2 (≈ 1.64 µM) | 1 (≈ 0.821 µM) | 2 (≈ 1.64 µM) | 1 (≈ 0.821 µM) | 2 (≈ 1.64 µM) | 2 (≈ 1.64 µM) | – |
| CC[C@@H](C)[C@@H](NC(=O)[C@@H](CCC(N)=O)NC(=O)[C@H](CCCNC(=N)N)NC(=O)[C@@H](NC(=O)[C@@H](Cc1ccccc1)NC)[C@@H](C)CC)C(=O)N[C@H](C(=O)N[C@@H](CO)C(=O)N[C@H]1C(=O)N[C@@H](C)C(=O)N[C@@H](C2CCCCC2)C(=O)N[C@@H]([C@@H](C)CC)C(=O)O[C@H]1C)[C@@H](C)CC [T87] | 1 (≈ 0.771 µM) | 0.5 (≈ 0.386 µM) | 1 (≈ 0.771 µM) | 1 (≈ 0.771 µM) | 0.5 (≈ 0.386 µM) | 2 (≈ 1.54 µM) | 1 (≈ 0.771 µM) | 1 (≈ 0.771 µM) | 2 (≈ 1.54 µM) | – |
| CC[C@@H](C)[C@@H](NC(=O)[C@@H](CCC(N)=O)NC(=O)[C@H](CO)NC(=O)[C@@H](NC(=O)[C@@H](Cc1ccccc1)NC)[C@@H](C)CC)C(=O)N[C@H](C(=O)N[C@@H](CO)C(=O)N[C@H]1C(=O)N[C@@H](C)C(=O)N[C@@H](CC2CC2)C(=O)N[C@@H]([C@@H](C)CC)C(=O)O[C@H]1C)[C@@H](C)CC [β-cyclopropyl-Ala10-teixobactin] | – | – | – | – | – | – | 0.5 (≈ 0.417 µM) | – | 2 (≈ 1.67 µM) | comparable activities as teixobactin |

From US20210060121A1, “NOVEL ANTIBIOTICS AND METHODS OF USING THEM” (priority 2018, published 2021)
